Results reported in PubChem BioAssay (NCI).
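Five concentrations, 48 hours, 96-well plates. GI50: concentration for 50% inhibition of growth. TGI denotes the concentration required for complete inhibition of growth.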

Key:
Test in all cases: NCI-60 cell line screen, 48 h
A498 renal = system: A498 renal
UACC-257 melanoma = system: UACC-257 melanoma
SF-539 CNS = system: SF-539 CNS
EKVX NSCLC = system: EKVX NSCLC
U251 CNS = system: U251 CNS
SK-MEL-28 melanoma = system: SK-MEL-28 melanoma
SF-268 CNS = system: SF-268 CNS
HT29 colon = system: HT29 colon
HOP-92 NSCLC = system: HOP-92 NSCLC
RXF 393 renal = system: RXF 393 renal

Row | Compound | GI50 (A498 renal) | TGI (A498 renal) | GI50 (UACC-257 melanoma) | TGI (UACC-257 melanoma) | GI50 (SF-539 CNS) [µM] | TGI (SF-539 CNS) [µM] | GI50 (EKVX NSCLC) | TGI (EKVX NSCLC) | GI50 (U251 CNS) | TGI (U251 CNS) | GI50 (SK-MEL-28 melanoma) | TGI (SK-MEL-28 melanoma) | GI50 (SF-268 CNS) | TGI (SF-268 CNS) | TGI (HT29 colon) | TGI (HOP-92 NSCLC) | GI50 (RXF 393 renal) | TGI (RXF 393 renal) | GI50 (HT29 colon) | GI50 (HOP-92 NSCLC)
1 | O=c1c2c3c(sc2n2c(-c4cc(-c5ccccc5)nn4-c4ccccc4)nnc2n1Cc1ccccc1)CCCC3 | > 100 µM | > 100 µM | > 100 µM | > 100 µM | > 100 | > 100 | > 100 µM | > 100 µM | > 100 µM | > 100 µM | > 100 µM | > 100 µM | > 100 µM | > 100 µM |  |  |  |  |  | 
2 | N=S(c1ccccc1)c1ccccc1[N+](=O)[O-] (stereo not drawn) |  | > 100 µM |  | 32.2 µM |  | 37.8 |  | 38.5 µM |  | 31.2 µM |  |  |  | 42.1 µM | 38.7 µM |  |  |  |  | 
3 | O=C(NC12CC3CC(CC(C3)C1)C2)C(=O)c1c[nH]c2ccc(Cl)cc12 |  |  |  | > 100 µM |  | > 100 |  | > 100 µM |  | > 100 µM |  | > 100 µM |  | > 100 µM | > 100 µM | 53.2 µM |  |  |  | 
4 | Cn1c2ccccc2c2c(=O)c3ccccc3[nH]c21 | 18 µM | 64.8 µM |  |  | 34 | > 100 | 44.1 µM | > 100 µM | 35.8 µM | > 100 µM | > 100 µM | > 100 µM | 25 µM | > 100 µM | > 100 µM |  | 54 µM | > 100 µM | 54 µM | 
5 | CCOC(=O)/C(=C/c1cccc(OC)c1)N(CC)CC |  | > 100 µM |  | > 100 µM |  | > 100 |  | > 100 µM |  | > 100 µM |  | > 100 µM |  | > 100 µM | > 100 µM | > 100 µM |  |  |  | 
6 | Cl[Si]1(Cl)Oc2ccccc2O[Si](Cl)(Cl)Oc2ccccc2O1 |  | > 100 µM |  |  |  | 97.9 |  | > 100 µM |  | > 100 µM |  | > 100 µM |  | > 100 µM | 70.9 µM | 89.6 µM |  |  |  | 
7 | CCOC1Oc2ccccc2-c2oc(=O)c(Sc3ccc(C)cc3)cc21 (stereo not drawn) | 34.4 µM | > 100 µM | 11.8 µM | 45.8 µM | 62.3 | > 100 | 42.8 µM | > 100 µM | 25.1 µM | > 100 µM | 84.2 µM | > 100 µM | 27.9 µM | 75.8 µM | > 100 µM | 48.4 µM |  |  | 32 µM | 10.8 µM
8 | Cc1ccc(S(=O)(=O)N/N=C(\c2nc3ccc([N+](=O)[O-])cc3[nH]c2=O)C(O)c2ccccc2Cl)cc1 (stereo not drawn) |  | > 100 µM |  | > 100 µM |  | > 100 |  | > 100 µM |  | > 100 µM |  | > 100 µM |  | > 100 µM | > 100 µM | > 100 µM |  |  |  | 
9 | CC(C)c1ccccc1NC(=O)/C(Cl)=C1/Sc2ccccc2NC1=O |  | 93.2 µM |  |  |  | 57.7 |  | > 100 µM |  | > 100 µM |  | > 100 µM |  | > 100 µM |  | > 100 µM |  | 49.6 µM |  | 
10 | Cn1cc(-c2csc(-c3cn(C)c4ccccc34)n2)c2cnccc21 | 2.06 µM | 3.88 µM | 1.94 µM | 3.5 µM | 1.75 | 3.2 | 1.56 µM | 3.39 µM | 1.86 µM | 3.45 µM | 1.77 µM | 3.21 µM | 1.92 µM | 3.92 µM | 3.71 µM |  | 1.7 µM | 3.28 µM | 1.98 µM | 
11 | COC1OC(C)C(OCc2ccccc2)C(OS(=O)(=O)c2ccc(C)cc2)C1OS(=O)(=O)c1ccc(C)cc1 (stereo not drawn) |  |  |  | > 100 µM |  | > 100 |  | > 100 µM |  | > 100 µM |  | > 100 µM |  | > 100 µM | > 100 µM |  |  | > 100 µM |  | 
12 | Cc1c(C(=O)CSc2nc3ccccc3c(=O)n2-c2ccccc2)c(=O)n(-c2ccccc2)n1C |  | > 100 µM |  | > 100 µM |  | > 100 |  |  |  | 69.2 µM |  | > 100 µM |  | > 100 µM | > 100 µM | 95.8 µM |  |  |  | 
13 | CCCCCCCCCCCCCCCCCCNC(=O)[C@H]1CSC(c2cccs2)N1 (stereo partly drawn) | > 50 µM | > 50 µM | 1.25 µM | 3.12 µM | 1.71 | 7.85 |  |  | 0.929 µM | 1.74 µM | 0.725 µM | 1.43 µM | 1.11 µM | 2.34 µM | 4.2 µM | 14.2 µM | 0.973 µM | 1.72 µM | 1.46 µM | 2.38 µM
14 | OC(CN1CC1)C(O)CN1CC1 (stereo not drawn) | > 50 µg/mL | > 50 µg/mL | > 50 µg/mL | > 50 µg/mL |  |  | > 50 µg/mL | > 50 µg/mL | > 50 µg/mL | > 50 µg/mL | > 50 µg/mL | > 50 µg/mL | > 50 µg/mL | > 50 µg/mL | > 50 µg/mL | > 50 µg/mL | > 50 µg/mL | > 50 µg/mL | > 50 µg/mL | > 50 µg/mL
15 | Cc1nnc(N/N=C(/C(=O)C(C#N)c2ccccc2)C(C#N)c2ccccc2)n1N (stereo not drawn) |  |  |  | 13.2 µM |  | > 65.2 |  | > 100 µM |  | > 83.1 µM |  | 36.1 µM |  | > 61.3 µM | > 65.7 µM | > 100 µM |  | 24.1 µM |  | 
16 | COC(=O)/C(C#N)=C1\CCC(C(=O)OC)N1C (stereo not drawn) |  | > 100 µM |  | > 100 µM |  | > 100 |  | > 100 µM |  | > 100 µM |  | > 100 µM |  | > 100 µM |  | > 100 µM |  | > 100 µM |  | 
17 | C[C@H]1[C@H](C)CC[C@]2(C(=O)NCCNCCN)CC[C@]3(C)C(=CC[C@@H]4[C@@]5(C)CCC(=O)C(C)(C)[C@@H]5CC[C@]43C)[C@H]12 | 11.8 µM | 27.2 µM | 1.84 µM | 3.89 µM | 1.68 | 3.05 | 1.58 µM | 3.02 µM | 1.66 µM | 3.17 µM | 1.65 µM | 3.02 µM |  |  |  | 4.82 µM |  |  |  | 1.73 µM
18 | CC1(Cc2ccccc2)NC(=S)NC1=O (stereo not drawn) |  |  |  | > 100 µM |  | > 100 |  | > 100 µM |  | > 100 µM |  | > 100 µM |  | > 100 µM | > 100 µM | > 100 µM |  | > 100 µM |  | 
